A value given as a limit tells only on which side of the number the result lay.

For assay [1], the target named is human CARM1 (PRMT4) (Homo sapiens (Human), UniProt Q86X55). In words: CARM1 enzyme assay on peptide substrate (3H-SAM Flashplate). To be noted: Biochemical potencies, read-out: Biochem IC50.
The subject of assay [2] is asymmetric di-methyl PABP1 in RKO cells. Put plainly: RKO methylation assay, In Cell Western (ICW) for asymmetric di-methyl PABP1. Type of assay: cell-based. The note with it: Cellular potencies, ICW PABP1me2a. A digest of the protocol:
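In-cell Western on fixed RKO cells after 48 h compound exposure: anti-asymmetric di-methyl PABP1 signal at 800 nm over DRAQ5 DNA signal at 700 nm. Percent inhibition set between DMSO wells and wells with 20 μM reference compound; IC50 curves fitted in triplicate.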

human CARM1 (PRMT4), sequence (Q86X55 other isoform, or with tags, fused parts or gaps isoform Q86X55-1): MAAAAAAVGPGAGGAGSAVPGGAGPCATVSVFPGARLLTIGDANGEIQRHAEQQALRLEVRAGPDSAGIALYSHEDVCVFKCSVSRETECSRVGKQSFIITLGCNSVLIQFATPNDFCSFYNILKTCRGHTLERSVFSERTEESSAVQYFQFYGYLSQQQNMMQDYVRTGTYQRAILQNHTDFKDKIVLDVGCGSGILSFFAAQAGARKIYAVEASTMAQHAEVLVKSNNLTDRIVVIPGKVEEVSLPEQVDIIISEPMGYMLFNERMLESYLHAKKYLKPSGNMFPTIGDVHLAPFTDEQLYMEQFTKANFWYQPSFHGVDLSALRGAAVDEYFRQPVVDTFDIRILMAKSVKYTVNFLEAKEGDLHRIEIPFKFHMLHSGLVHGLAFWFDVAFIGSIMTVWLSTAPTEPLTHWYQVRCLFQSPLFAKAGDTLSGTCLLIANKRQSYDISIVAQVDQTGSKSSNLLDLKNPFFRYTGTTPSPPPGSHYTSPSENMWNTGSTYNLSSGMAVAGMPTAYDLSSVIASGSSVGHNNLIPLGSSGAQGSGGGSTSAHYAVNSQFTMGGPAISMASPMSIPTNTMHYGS

Turning to `CNCC(O)COc1cccc(-c2nc(NC3CCOCC3)c(C)c(N3CCN(S(C)(=O)=O)CC3)n2)c1` (stereo not shown) [Example 660-1a], the IC50 (commonly the point on the concentration scale where inhibition reaches its midpoint) in assay [1] was 1000 to 3000 nM; in assay [2] (Homo sapiens, RKO), not below 20000 nM.
Taken in the same sequence, the figures for `CNCC(O)COc1cccc(-c2nc(NC(C)C3CCOCC3)cc(-c3c(C)noc3C)n2)c1` (stereo not shown) [Example 158-1a] were 100 to 1000 nM and 5000 to 10000 nM.
Taken in the same sequence, the figures for `CNCC(O)COc1cccc(-c2nc(N[C@@H]3CC[C@H](O)C3)c(C)c(N3CCOCC3)n2)c1` (stereo partly shown) [Example 687-1a] were 100 to 1000 nM and not below 20000 nM.
Taken in the same sequence, the figures for `CNCC(O)COc1cccc(-c2nc(N[C@@H]3CCOC3)c(C)c(C(=O)N(C)CC3CCOCC3)n2)c1` (stereo partly shown) [Example 364-1a] were 100 to 1000 nM and 10000 to 20000 nM.
Regarding `CNCC(O)COc1cccc(-c2nc(N(C)c3cnc(C(F)(F)F)nc3)cc(N(C)C3CCOCC3)n2)c1` (stereo not shown) [Example 587-1a], the IC50 in assay [1] is 100 to 1000 nM; in assay [2] (Homo sapiens, RKO) it was 10000 to 20000 nM.
Taken in the same sequence, the figures for `CNCC(O)COc1cccc(-c2nc(N[C@@H]3CCOC3)c(C)c(-c3cc[nH]n3)n2)c1` (stereo partly shown) [Example 349-1a] were 100 to 1000 nM and 10000 to 20000 nM.
Taken in the same sequence, the figures for `CNCC(O)COc1cccc(-c2nc(N3C[C@@H]4CCCN(C(C)=O)[C@@H]4C3)cc(N(C)C3CCOCC3)n2)c1` (stereo partly shown) [Example 539-1a] were 100 to 1000 nM and 10000 to 20000 nM.
Consider `CNCC(O)COc1ccc(C#N)c(-c2nc(NC3CCOCC3)c(C)c(-c3c(C)noc3C)n2)c1` (stereo not shown) [Example 166-3], for which the IC50 is 100 to 1000 nM in assay [1] and not below 20000 nM in assay [2] (Homo sapiens, RKO).
Taken in the same sequence, the figures for `CNCC(O)COc1cccc(-c2nc(N[C@@H]3CCOC3)c(C3CC3)c(N3CCOCC3)n2)c1` (stereo partly shown) [Example 413-1a] were 100 to 1000 nM and 10000 to 20000 nM.
Taken in the same sequence, the figures for `CNCC(O)COc1cccc(-c2nc(NC3CCCC3)c(C)c(N3CCOCC3)n2)c1` (stereo not shown) [Example 683-1a] were 100 to 1000 nM and not below 20000 nM.
Taken in the same sequence, the figures for `CNCC(O)COc1cccc(-c2nc(NC3CCOC3)c(C)c(N3CCNC(C(F)(F)F)C3)n2)c1` (stereo not shown) [Example 419-1a] were 100 to 1000 nM and 10000 to 20000 nM.
With `CNCC(O)COc1cccc(-c2nc(N3CC[C@H](N(C)C(C)=O)C3)cc(N(C)C3CCOCC3)n2)c1` (stereo partly shown) [Example 547-1a], the IC50 in assay [1] lay within 100 to 1000 nM; in assay [2] (Homo sapiens, RKO), 10000 to 20000 nM.
In the case of `CNCC(O)COc1cccc(-c2nc(N[C@H]3CO[C@H]4OCC[C@H]43)cc(N3CCOCC3)n2)c1` (stereo partly shown) [Example 672-1a], the IC50 is 100 to 1000 nM in assay [1] and 10000 to 20000 nM in assay [2].
As to `CCc1c(N[C@@H]2CCOC2)nc(-c2cccc(OCC(O)CNC)c2)nc1N1CCOCC1` (stereo partly shown) [Example 404-1a], the IC50 was 100 to 1000 nM in assay [1] and 10000 to 20000 nM in assay [2] (Homo sapiens, RKO).
`CNCC(O)COc1cccc(-c2nc(N[C@@H]3CCOC3)c(C)c(N(C)Cc3ccccn3)n2)c1` (stereo partly shown) [Example 393-1a]: the IC50 in assay [1] is 100 to 1000 nM; in assay [2] (Homo sapiens, RKO), 10000 to 20000 nM.
Taken in the same sequence, the figures for `CNCC(O)COc1cccc(-c2nc(C(=O)NC3CCOCC3)cc(-c3c(C)noc3C)n2)c1` (stereo not shown) [Example 52-1a] were 100 to 1000 nM and 10000 to 20000 nM.
On the same counts, the results for `CNCC(O)COc1cccc(-c2nc(OC)c(C)c(-c3c(C)noc3C)n2)c1` (stereo not shown) [Example 83-1a] are 100 to 1000 nM and 10000 to 20000 nM.

These data come from patent US10633389B2, “CARM1 inhibitors and uses thereof” (Epizyme, Inc., priority 2013, dated 2020).
